Data reported in patent US20210238598A1, “COMPOSITIONS, SYSTEMS, AND METHODS FOR BASE DIVERSIFICATION” (Pairwise Plants Services, Inc., priority 2020, published 2021).

Target: T1, APE1 (Homo sapiens, UniProt P27695)
T1 construct: endogenous in cells; host or cells: HEK293T (ATCC CRL-3216)
Assay: APE1 inhibitor effect on indels and base diversification by AID or pmCDA1 fused to Cas9 nickase (D10A), HTS
Assay type: cell-based
Details: HEK293T cells, 100 μM and 200 μM, 3d, FIG. 6
Method: APE1 was inhibited by using CRT0044876 (Scheme 1), which is a potent and well-known APE1 inhibitor.
To ascertain whether this compound improves base diversification profile, HEK293T cells were treated with AID or pmCDA1 fused to Cas9 nickase (D10A) in the presence of CRT0044876. After 3d, the cells were harvested and analyzed through high-throughput sequencing (HTS).

T1 sequence (P27695 whole entry): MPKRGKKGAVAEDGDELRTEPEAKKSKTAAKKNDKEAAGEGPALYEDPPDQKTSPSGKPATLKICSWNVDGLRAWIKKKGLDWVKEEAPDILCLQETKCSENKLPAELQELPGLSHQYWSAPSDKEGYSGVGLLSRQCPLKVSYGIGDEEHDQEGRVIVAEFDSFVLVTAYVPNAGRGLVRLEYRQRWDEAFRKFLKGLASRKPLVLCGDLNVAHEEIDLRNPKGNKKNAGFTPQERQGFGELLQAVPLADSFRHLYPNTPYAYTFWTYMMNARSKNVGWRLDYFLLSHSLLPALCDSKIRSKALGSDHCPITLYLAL

O=C(O)c1cc2cccc([N+](=O)[O-])c2[nH]1 [CRT0044876]
base diversification rate: some decrease
amount of indel generated (multiple target sites): significant decrease
